pEC50, pIC50: −log10 of the molar value. Like-named read-outs stand apart in the source and are kept apart here.
How the values were obtained:
[1] = tested on: NCI-H358 cells (K-Ras G12C); assay: CellTiter-Glo cell viability, NCI-H358; assay type: cell-based, human; details: Homo sapiens, NCI-H358, 120 h, read-out: H358 Cell Viability IC50
Outline: (§1)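 Cells seeded, compound dispensed straight into wells, 5-day exposure. Plates brought to room temperature ~30 min, CellTiter-Glo luminescence measured. Normalized to DMSO (%), 4-parameter logistic fit.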

[2] = tested on: Capan-1 cells (K-Ras G12V); assay: CellTiter-Glo cell viability, Capan-1; assay type: cell-based, human; details: Homo sapiens, CAPAN-1, 120 h, read-out: Capan-1 Cell Viability IC50
Outline: as §1

KRAS G12C = KRAS G12C (Homo sapiens (Human), UniProt P01116+P62937, G12C); assay: Ras-Raf disruption/FRET/MOA assay (BRAF RBD, Cyclophilin A); assay type: biochemical; details: read-out: KRAS G12C FRET IC50
KRAS G12C, sequence (P01116-2 other isoform, or with tags, fused parts or gaps G12C): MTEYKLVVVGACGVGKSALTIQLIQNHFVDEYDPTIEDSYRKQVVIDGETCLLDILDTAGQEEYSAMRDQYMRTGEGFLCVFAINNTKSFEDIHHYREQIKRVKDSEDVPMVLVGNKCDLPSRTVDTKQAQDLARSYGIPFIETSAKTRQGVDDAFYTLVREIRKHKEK
KRAS G12C, sequence (P62937 whole entry): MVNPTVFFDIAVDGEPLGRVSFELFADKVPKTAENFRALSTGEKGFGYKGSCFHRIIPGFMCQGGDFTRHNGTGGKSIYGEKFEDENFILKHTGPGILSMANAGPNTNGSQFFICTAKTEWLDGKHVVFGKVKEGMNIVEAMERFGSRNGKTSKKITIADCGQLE
Outline: (§2)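 Ras-GMPPNP (12.5 nM), BRAF RBD (50 nM) and 25 μM Cyclophilin A were incubated with compound for 3 h at 25° C, then detected 1.5 h with anti-His Eu and anti-GST APC; IC50 values follow from the reduced TR-FRET ratio.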

KRAS G12D = KRAS G12D (Homo sapiens (Human), UniProt P01116+P62937, G12D); assay: as above; assay type: biochemical; details: read-out: KRAS G12D FRET IC50
KRAS G12D, sequence (P01116 other isoform, or with tags, fused parts or gaps G12D): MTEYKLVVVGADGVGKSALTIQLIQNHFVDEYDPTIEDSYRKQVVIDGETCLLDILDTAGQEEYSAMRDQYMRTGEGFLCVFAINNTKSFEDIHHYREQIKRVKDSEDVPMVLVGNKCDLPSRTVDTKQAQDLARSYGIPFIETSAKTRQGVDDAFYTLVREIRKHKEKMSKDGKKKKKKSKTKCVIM
KRAS G12D, sequence (P62937 whole entry): as the sequence (P62937 whole entry) above
Outline: as §2

KRAS G12S = KRAS G12S (Homo sapiens (Human), UniProt P01116+P62937, G12S); assay: as above; assay type: biochemical; details: read-out: KRAS G12S FRET IC50
KRAS G12S, sequence (P01116 other isoform, or with tags, fused parts or gaps G12S): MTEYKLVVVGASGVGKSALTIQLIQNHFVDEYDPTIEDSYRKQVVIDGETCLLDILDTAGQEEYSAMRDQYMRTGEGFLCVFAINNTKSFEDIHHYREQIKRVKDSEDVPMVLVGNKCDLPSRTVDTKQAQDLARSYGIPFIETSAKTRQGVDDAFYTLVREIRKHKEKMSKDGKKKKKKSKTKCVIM
KRAS G12S, sequence (P62937 whole entry): as the sequence (P62937 whole entry) above
Outline: as §2

KRAS G12V = KRAS G12V (Homo sapiens (Human), UniProt P01116+P62937, G12V); assay: as above; assay type: biochemical; details: read-out: KRAS G12V FRET IC50
KRAS G12V, sequence (P01116 other isoform, or with tags, fused parts or gaps G12V): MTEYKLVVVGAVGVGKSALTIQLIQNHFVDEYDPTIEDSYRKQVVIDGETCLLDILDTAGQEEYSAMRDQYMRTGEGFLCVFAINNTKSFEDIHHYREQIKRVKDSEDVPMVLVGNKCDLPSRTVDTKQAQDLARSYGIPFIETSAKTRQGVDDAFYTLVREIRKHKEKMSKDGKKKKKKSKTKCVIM
KRAS G12V, sequence (P62937 whole entry): as the sequence (P62937 whole entry) above
Outline: as §2

KRAS G13C = KRAS G13C (Homo sapiens (Human), UniProt P01116+P62937, G13C); assay: as above; assay type: biochemical; details: read-out: KRAS G13C FRET IC50
KRAS G13C, sequence (P01116 other isoform, or with tags, fused parts or gaps G13C): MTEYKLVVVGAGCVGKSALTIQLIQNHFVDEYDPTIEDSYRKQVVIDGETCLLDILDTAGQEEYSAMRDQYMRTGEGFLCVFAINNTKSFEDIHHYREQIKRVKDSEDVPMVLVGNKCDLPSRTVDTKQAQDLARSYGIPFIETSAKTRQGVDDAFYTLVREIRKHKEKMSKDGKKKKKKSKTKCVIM
KRAS G13C, sequence (P62937 whole entry): as the sequence (P62937 whole entry) above
Outline: as §2

KRAS G13D = KRAS G13D (Homo sapiens (Human), UniProt P01116+P62937, G13D); assay: as above; assay type: biochemical; details: read-out: KRAS G13D FRET data IC50
KRAS G13D, sequence (P01116 other isoform, or with tags, fused parts or gaps G13D): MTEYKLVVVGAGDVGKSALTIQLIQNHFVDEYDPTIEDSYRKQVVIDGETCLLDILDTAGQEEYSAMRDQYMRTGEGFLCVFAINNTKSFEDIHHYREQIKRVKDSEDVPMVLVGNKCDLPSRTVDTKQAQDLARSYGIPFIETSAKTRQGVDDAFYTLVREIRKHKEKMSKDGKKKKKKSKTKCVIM
KRAS G13D, sequence (P62937 whole entry): as the sequence (P62937 whole entry) above
Outline: as §2

KRAS WT = KRAS WT (Homo sapiens (Human), UniProt P01116+P62937); assay: as above; assay type: biochemical; details: read-out: KRAS WT FRET data IC50
KRAS WT, sequence (P01116 other isoform, or with tags, fused parts or gaps): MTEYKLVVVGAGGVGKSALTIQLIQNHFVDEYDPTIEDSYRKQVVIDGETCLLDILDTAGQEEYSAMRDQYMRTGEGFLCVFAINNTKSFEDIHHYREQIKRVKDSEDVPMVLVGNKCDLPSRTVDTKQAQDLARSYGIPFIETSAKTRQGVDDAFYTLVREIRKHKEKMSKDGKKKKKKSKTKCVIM
KRAS WT, sequence (P62937 whole entry): as the sequence (P62937 whole entry) above
Outline: as §2

NRAS G12C = NRAS G12C (Homo sapiens (Human), UniProt P01111+P62937, G12C); assay: as above; assay type: biochemical
NRAS G12C, sequence (P01111 whole entry G12C): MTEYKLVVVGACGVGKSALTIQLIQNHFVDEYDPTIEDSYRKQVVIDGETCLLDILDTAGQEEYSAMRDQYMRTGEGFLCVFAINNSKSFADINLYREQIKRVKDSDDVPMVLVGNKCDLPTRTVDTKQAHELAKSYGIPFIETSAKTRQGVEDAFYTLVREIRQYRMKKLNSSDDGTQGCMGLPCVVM
NRAS G12C, sequence (P62937 whole entry): as the sequence (P62937 whole entry) above
Outline: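 25 μM tagless Cyclophilin A, 12.5 nM His6-Ras-GMPPNP and 50 nM GST-BRAF RBD in HEPES pH 7.3 buffer with 5 mM MgCl2, with compound (10-point 3-fold series from 30 μM final) for 3 h at 25 °C. Anti-His Eu and anti-GST APC then added for 1.5 h. IC50 from TR-FRET ratio decrease versus DMSO.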

[3] = tested on: K-Ras G12C (NCI-H358 cells); assay: Potency assay: pERK in NCI-H358 cells; assay type: cell-based, human; details: Homo sapiens; NCI-H358 cells, 4 hours; read-out: pERK EC50 (H358 KRAS G12C)
Outline: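 Cells plated the day before were exposed for 4 h at 37° C, 5% CO2 to a 10-point, 3-fold DMSO dilution series (10 mM top stock), in duplicate. Phospho-ERK was read by AlphaLISA SureFire Ultra or by In-Cell Western with DRAQ5 DNA stain, and IC50 came from a 4-parameter sigmoidal fit.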

[4] = read-out: NRAS G12C FRET data IC50

pIC50 ([1]; K-Ras G12C, 5-day treatment) | pIC50 (KRAS G12C) | pIC50 (KRAS G12D) | pIC50 (KRAS G12S) | pIC50 (KRAS G12V) | pIC50 (KRAS G13C) | pIC50 (KRAS G13D) | pIC50 (KRAS WT) | pIC50 (NRAS G12C; [4]) | pEC50 [3] | Structure (SMILES) | pIC50 ([2]; K-Ras G12V, 5-day treatment) | pIC50 [1] | pIC50 [2] | pIC50 (NRAS G12C; NRAS G12C FRET data IC50)
6.00 to 7.00 | 6.00 to 7.00 | 5.00 to 6.00 | 6.00 to 7.00 | 6.00 to 7.00 | 6.00 to 7.00 | 6.00 to 7.00 | 6.00 to 7.00 | 6.00 to 7.00 | > 5.30 | CCn1c(-c2cccnc2COC)c2c3cc(ccc31)-c1cc(O)cc(c1)C[C@H](NC(=O)[C@H](C(C)C)N(C)C(=O)OC1COC1)C(=O)N1CCC[C@H](N1)C(=O)OCC(C)(C)C2 [Compound A39] | 6.00 to 7.00 | – | – | –
5.00 to 6.00 | 6.00 to 7.00 | 5.00 to 6.00 | 6.00 to 7.00 | 6.00 to 7.00 | 6.00 to 7.00 | 6.00 to 7.00 | 6.00 to 7.00 | 6.00 to 7.00 | > 5.30 | CCn1c(-c2cnccc2COC)c2c3cc(ccc31)-c1cc(O)cc(c1)C[C@H](NC(=O)[C@H](C(C)C)N1CCCC1=O)C(=O)N1CCC[C@H](N1)C(=O)OCC(C)(C)C2 [Compound A40] | 5.00 to 6.00 | – | – | –
5.00 to 6.00 | 6.00 to 7.00 | 6.00 to 7.00 | 6.00 to 7.00 | 6.00 to 7.00 | 6.00 to 7.00 | 6.00 to 7.00 | 6.00 to 7.00 | 6.00 to 7.00 | > 5.30 | CCn1c(-c2cnccc2COC)c2c3cc(ccc31)-c1cc(O)cc(c1)C[C@H](NC(=O)[C@H](C(C)C)N(C)C(=O)[C@H]1CCCN1C)C(=O)N1CCC[C@H](N1)C(=O)OCC(C)(C)C2 [Compound A83] | 5.00 to 6.00 | – | – | –
6.00 to 7.00 | 6.00 to 7.00 | 6.00 to 7.00 | 6.00 to 7.00 | 5.00 to 6.00 | 7.00 to 8.00 | 7.00 to 8.00 | 6.00 to 7.00 | 6.00 to 7.00 | > 5.30 | CCn1c(-c2cccnc2[C@H](C)OC)c2c3cc(ccc31)-c1cc(O)cc(c1)C[C@H](NC(=O)[C@H](C(C)C)N(C)C(=O)O[C@H]1CCN(C)C1)C(=O)N1CCC[C@H](N1)C(=O)OCC(C)(C)C2 [Compound A169] | 6.00 to 7.00 | – | – | –
6.00 to 7.00 | 7.00 to 8.00 | 6.00 to 7.00 | 6.00 to 7.00 | 6.00 to 7.00 | 7.00 to 8.00 | 6.00 to 7.00 | 6.00 to 7.00 | 7.00 to 8.00 | – | CCn1c(-c2cccnc2[C@H](C)OC)c2c3cc(ccc31)-c1cc(O)cc(c1)C[C@H](NC(=O)[C@H](C(C)C)N(C)C(=O)C1CC(C)C1)C(=O)N1CCC[C@H](N1)C(=O)OCC(C)(C)C2 (stereo partly drawn) [Compound A384] | 6.00 to 7.00 | – | – | –

Second part, the compound before the results:

Structure (SMILES) | pIC50 ([1]; K-Ras G12C, 5-day treatment) | pIC50 (KRAS G12C) | pIC50 (KRAS G12D) | pIC50 (KRAS G12S) | pIC50 (KRAS G12V) | pIC50 (KRAS G13C) | pIC50 (KRAS G13D) | pIC50 (KRAS WT) | pIC50 (NRAS G12C; [4]) | pEC50 [3] | pIC50 ([2]; K-Ras G12V, 5-day treatment) | pIC50 [1] | pIC50 [2] | pIC50 (NRAS G12C; NRAS G12C FRET data IC50)
CCn1c(-c2cccnc2[C@H](C)OC)c2c3cc(ccc31)-c1cc(O)cc(c1)C[C@H](NC(=O)[C@H](C(C)C)N(C)C(=O)[C@H]1CCN(C(=O)OC3CC3)C1)C(=O)N1CCC[C@H](N1)C(=O)OCC(C)(C)C2 [Compound A202] | 7.00 to 8.00 | 7.00 to 8.00 | 6.00 to 7.00 | 7.00 to 8.00 | 7.00 to 8.00 | 7.00 to 8.00 | 7.00 to 8.00 | 7.00 to 8.00 | 7.00 to 8.00 | > 5.30 | 7.00 to 8.00 | – | – | –
CCn1c(-c2cccnc2[C@H](C)OC)c2c3cc(ccc31)-c1cc(O)cc(c1)C[C@H](NC(=O)[C@H](C(C)C)N(C)C(=O)C1CCc3ncccc3C1)C(=O)N1CCC[C@H](N1)C(=O)OCC(C)(C)C2 (stereo partly drawn) [Compound A247] | 7.00 to 8.00 | 7.00 to 8.00 | 7.00 to 8.00 | 7.00 to 8.00 | 7.00 to 8.00 | 7.00 to 8.00 | 7.00 to 8.00 | 7.00 to 8.00 | 7.00 to 8.00 | > 5.30 | 7.00 to 8.00 | – | – | –
CCn1c(-c2cccnc2[C@H](C)OC)c2c3cc(ccc31)-c1cc(O)cc(c1)C[C@H](NC(=O)[C@H](C(C)C)N(C)C(=O)[C@H]1CC[C@@H]1N)C(=O)N1CCC[C@H](N1)C(=O)OCC(C)(C)C2 [Compound A392] | 7.00 to 8.00 | 7.00 to 8.00 | 7.00 to 8.00 | 7.00 to 8.00 | 6.00 to 7.00 | 7.00 to 8.00 | 7.00 to 8.00 | 7.00 to 8.00 | 7.00 to 8.00 | – | 5.00 to 6.00 | – | – | –
CCn1c(-c2cccnc2[C@H](C)OC)c2c3cc(ccc31)-c1cc(O)cc(c1)C[C@H](NC(=O)[C@H](C(C)C)N(C)C(=O)C1CCNC13CCC3)C(=O)N1CCC[C@H](N1)C(=O)OCC(C)(C)C2 (stereo partly drawn) [Compound A393] | 6.00 to 7.00 | 7.00 to 8.00 | 7.00 to 8.00 | 7.00 to 8.00 | 6.00 to 7.00 | 7.00 to 8.00 | 7.00 to 8.00 | 7.00 to 8.00 | 7.00 to 8.00 | – | 5.00 to 6.00 | – | – | –
CCn1c(-c2cccnc2[C@H](C)OC)c2c3cc(ccc31)-c1csc(n1)C[C@H](NC(=O)[C@H](C(C)C)N(C)C(=O)N1CCOC[C@H]1C)C(=O)N1CCC[C@H](N1)C(=O)OCC(C)(C)C2 [Compound A402] | 7.00 to 8.00 | 7.00 to 8.00 | 6.00 to 7.00 | 6.00 to 7.00 | 6.00 to 7.00 | 6.00 to 7.00 | 6.00 to 7.00 | 7.00 to 8.00 | 7.00 to 8.00 | – | 7.00 to 8.00 | – | – | –
CCn1c(-c2cccnc2[C@H](C)OC)c2c3cc(ccc31)-c1cc(O)cc(c1)C[C@H](NC(=O)[C@H](C(C)C)N(C)C(=O)C1CCC(C(F)(F)F)O1)C(=O)N1CCC[C@H](N1)C(=O)OCC(C)(C)C2 (stereo partly drawn) [Compound A408] | – | 7.00 to 8.00 | 6.00 to 7.00 | 7.00 to 8.00 | 6.00 to 7.00 | 7.00 to 8.00 | 6.00 to 7.00 | 6.00 to 7.00 | – | – | – | 6.00 to 7.00 | 5.00 to 6.00 | 7.00 to 8.00
CCn1c(-c2cccnc2[C@H](C)OC)c2c3cc(ccc31)-c1cc(O)cc(c1)C[C@H](NC(=O)[C@H](C(C)C)N(C)C(=O)C13CCC(CO1)C3)C(=O)N1CCC[C@H](N1)C(=O)OCC(C)(C)C2 [Compound A410] | 6.00 to 7.00 | 7.00 to 8.00 | 6.00 to 7.00 | 6.00 to 7.00 | 6.00 to 7.00 | 7.00 to 8.00 | 6.00 to 7.00 | 7.00 to 8.00 | 6.00 to 7.00 | – | 6.00 to 7.00 | – | – | –

— patent US20250195521A1 (Revolution Medicines, Inc., priority 2020, published 2025)
